# In US7625897B2, “Non-nucleoside reverse transcriptase inhibitors” (Roche Palo Alto LLC, priority 2005, dated 2009):
# Where two headings read alike, the source gives them in different places.
# Legend:
# HIV-1 RT = HIV-1 RT (Human immunodeficiency virus type 1 group M subtype B, UniProt P03366); test: HIV Reverse Transcriptase Assay: Inhibitor IC50 determination; type: biochemical
# Procedure: HIV Reverse Transcriptase Assay: Inhibitor IC50 determination
# HIV-1 RT assay was carried out in 96-well Millipore MultiScreen MADVNOB50 plates using purified recombinant enzyme and a poly(rA)/oligo(dT)16 template-primer in a total volume of 50 μL. The assay constituents were 50 mM Tris/HCl, 50 mM NaCl, 1 mM EDTA, 6 mM MgCl2, 5 μM dTTP, 0.15 μCi [^3H] dTTP, 5 μg/ml poly (rA) pre annealed to 2.5 μg/ml oligo (dT)16 and a range of inhibitor concentrations in a final concentration of 10% DMSO. Reactions were initiated by adding 4 nM HIV-1 RT and after incubation at 37° C. for 30 min, they were stopped by the addition of 50 μl ice cold 20% TCA and allowed to precipitate at 4° C. for 30 min. The precipitates were collected by applying vacuum to the plate and sequentially washing with 3×200 μl of 10% TCA and 2×200 μl 70% ethanol. Finally, the plates were dried and radioactivity counted in a Packard TopCounter after the addition of 25 μl scintillation fluid per well. IC50's were calculated by plotting % inhibition versus log10 inhibitor concentrations.
# HIV = test: Anti-viral Assay (method of Pauwels et al.); type: cell-based; conditions: Human immunodeficiency virus 1; TABLE 3
# Procedure: Anti-viral assays were carried out by the method described by R. E. Pauwels et al. J Virol. Methods 1988 20(4):309-322.
# [1] = TABLE 3, read-out: RT inhibition IC50
# [2] = TABLE I, purified recombinant enzyme, poly(rA)/oligo(dT)16 template-primer, read-out: HIV-RT IC50 RT
SMILES,IC50 (HIV-1 RT; [1]) [nM],IC50 (HIV-1 RT; [2]) [nM],EC50 (HIV) [nM],melting point [°C]
"C[C@H]1NC(Cc2ccc(Cl)c(Oc3cc(Cl)cc(C#N)c3)c2F)=NNC1=O [Compound I-15, 3-Chloro-5-[6-chloro-2-fluoro-3-((R)-5-methyl-6-oxo-1,4,5,6-tetrahydro-[1,2,4]triazin-3-ylmethyl)-phenoxy]-benzonitrile]",11,11.1,8.3,158.6 to 159.9
"C[C@H]1NC(Cc2ccc(Cl)c(Oc3cc(C#N)cc(C#N)c3)c2F)=NNC1=O [Compound I-5, 5-[6-Chloro-2-fluoro-3-((R)-5-methyl-6-oxo-1,4,5,6-tetrahydro-[1,2,4]triazin-3-ylmethyl)-phenoxy]-isophthalonitrile]",32,31.8,12.2,81.5 to 100
